Laboratory results reported in patent publication US12384751B2, “Allosteric activators of the ALPHA1A-adrenergic receptor” (The Cleveland Clinic Foundation, priority 2019, dated 2025).
“Also recorded” adds a separate entry of the source.

What was measured:
α1D-AR = biological target: T1, α1D-AR (Homo sapiens, UniProt P25100); test: Effect of compound on binding affinity of norepinephrine at α1D-AR; details: 10^−5M
T1 construct: expressed in transfected cells; host or cells: Rat-1 fibroblast cells
T1 sequence (P25100 1-572): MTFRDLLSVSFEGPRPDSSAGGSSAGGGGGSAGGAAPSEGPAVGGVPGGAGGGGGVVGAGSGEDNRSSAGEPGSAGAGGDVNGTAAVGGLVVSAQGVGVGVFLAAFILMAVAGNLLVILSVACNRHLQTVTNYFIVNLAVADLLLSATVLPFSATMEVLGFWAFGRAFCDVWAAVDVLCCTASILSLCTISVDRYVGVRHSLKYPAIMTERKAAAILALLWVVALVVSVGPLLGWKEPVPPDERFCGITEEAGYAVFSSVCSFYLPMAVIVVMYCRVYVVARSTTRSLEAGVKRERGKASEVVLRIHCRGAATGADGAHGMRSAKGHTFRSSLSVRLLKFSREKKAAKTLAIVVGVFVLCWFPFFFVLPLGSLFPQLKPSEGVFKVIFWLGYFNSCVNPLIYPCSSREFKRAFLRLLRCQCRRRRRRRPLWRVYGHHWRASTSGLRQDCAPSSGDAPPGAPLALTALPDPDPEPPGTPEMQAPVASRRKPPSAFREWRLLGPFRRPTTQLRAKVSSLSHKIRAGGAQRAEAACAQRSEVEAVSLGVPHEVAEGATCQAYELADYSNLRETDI
Procedure: Competition binding assays: These compounds were characterized for their ligand binding properties at the α1-AR subtypes. The binding affinities of Compounds 1-10 were determined in a series of competition-binding experiments with the α1-AR-selective antagonist [^125I]HEAT as the radioligand. Assays were performed in duplicate in HEM buffer, in a total assay volume of 1000 μl. Radioligand binding assays are composed of 5 ug of membranes, harvested from Rat-1 fibroblast cells expressing only one of the alpha1-AR subtypes, HEM buffer containing GTP (composed of 20 mM HEPES, pH 7.4, 1.4 mM EGTA, 12.5 mM MgCl2, pH to 7.4), 0.5 mM GTP, 35-80 pM^125I-HEAT, and various doses of norepinephrine or epinephrine and incubated with shaking at 25° C. for 1-2 hours. The above conditions will convert all the conformations of the receptor into a single low affinity site. To show both high and low affinity sites of the receptor (typically seen with GPCR agonists), the GTP is removed from the binding buffer. Nonspecific binding was determined experimentally in the presence of 10^−4 M phentolamine. Unbound radioactivity was separated from membrane-bound radioactivity by filtration through Whatman GF/C filter paper. […] Bound radioactivity remaining on the filters was counted on an ICN gamma counter operating at 79.8% efficiency. Data are analyzed using Graphpad Prism. […]

[1] = Mean arterial blood pressure in 3×TG AD mice; assay type: in vivo; details: 3×TG mice
Procedure: A 10 month continuous dose study was performed in the 3×TG Alzheimer's Disease (AD) mouse model containing the triple mutations (APP(swe), PS1(M146V), tau(P301L)) from Jackson labs. Synaptic dysfunction and LTP deficits manifests in an age-related manner beginning from 2-6 months that occurs prior to Aβ pathology (87, herein incorporated by reference). Hippocampal-dependent cognitive impairments begin at 4-6 months depending upon the strain (88-89, herein incorporated by reference). 3×Tg mice have documented cognitive deficits in the Morris water maze (88) and Barnes maze (9, 90). Deficits in long-term synaptic plasticity correlate with the accumulation of intraneuronal Aβ (88). 3×Tg have decreased neurogenesis in both SGZ and SVZ before Aβ pathology and treatments that increased neurogenesis improved memory in 3×TG mice (18-19, herein incorporated by reference).
AD mice were first randomized and sorted into control or treatment groups. […] 14 AD mice from each treatment group received Compound 3 in the drinking water (2.611 mg/kg/bw) to deliver a daily dose near the peak potentiation of the cAMP response in the brain at 10^−8M based upon the PAM assay and pharmacokinetics. This was achieved by adding Compound 3 to the drinking water at 32 uM, assuming the mice drink 6 ml/day, with only 10% of bioavailable drug reaching the brain. The drug was administered in the drinking water for 10 months, starting at age 2 months, then subjected to either different cognitive behavioral tests or electrophysiology at age 12 months to maximize the manifestations of AD symptoms in these mice. Mice are maintained on the drug for the duration of the studies and blinded to the operator.
At 12 months of age mice were subjected to long term potentiation (LTP) (FIG. 25).
Assessment: Blood pressure. […]

[2] = drinking water 2.611 mg/kg/bw, N=13-16

## CC(C)Cc1c(OCC2=NCCN2)cccc1N(C)S(C)(=O)=O [Compound 3, N-[3-(4,5-Dihydro-1H-imidazol-2-ylmethoxy)-2-isobutyl-phenyl]-N-methyl-methanesulfonamide]
α1D-AR
  effect on affinity of norepinephrine at the α1D-AR: no effect; also recorded: does not increase the affinity of norepinephrine
[1]
  blood pressure, treated vs untreated: no significant differences; also recorded: does not affect blood pressure
[1]; [2]
  mean arterial blood pressure, treated females (F): 85±2.4
  mean arterial blood pressure, treated males (M): 97±3
